Measured values as given in US20140005163A1 (NOVARTIS AG, priority 2010, published 2014).
Converted amounts (≈) assume the structure as drawn. Read-outs that look alike come from different tables or passages of the source.

Assays:
Solubility at pH 6.8 = type: physicochemical
How it was run: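 Solubility was measured at pH 6.8 following the cited Zhou et al. (2007) procedure.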

PI3K alpha = target: T1, PI3K alpha (Homo sapiens, UniProt P42336); test: PI3K alpha kinase assay (Kinase-Glo luminescence); type: biochemical
T1 construct: p85(iSH2) fusion partner (see partner chain) (N); His tag (C); made in house; host or cells: baculovirus; Tn5 (Trichoplusia ni) or TiniPro insect cells
How it was run: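 PI3K alpha at 10 nM with 1 μM ATP and 10 μg/mL phosphatidylinositol in 10 mM TRIS pH 7.5, 3 mM MgCl2, 50 mM NaCl, 0.05% CHAPS, 1 mM DTT, 60 min at room temperature. Remaining ATP read by Kinase-Glo luminescence. IC50 by 4-parameter fit over 8 concentrations.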

[1] = system: PKB Ser473 phosphorylation in Rat1-myr-HA-p110 alpha cells; test: Reverse protein array assay, PKB Ser473 phosphorylation in Rat1-myr-p110 alpha cells; type: cell-based; settings: 0.5 h, pAkt Ser473, 30 minutes compound incubation, read-out: p-PKB IC50
How it was run: (§1)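 Cells: Rat1-myr-HA-p110 alpha/beta/delta, seeded ≥20 h. Lysis on ice 10 min; reverse-phase protein array, 4 lysate dilutions; fluorescence read, relative intensity.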

[2] = system: PKB Ser473 phosphorylation in Rat1-myr-HA-p110 beta cells; test: Reverse protein array assay, PKB Ser473 phosphorylation in Rat1-myr-p110 beta cells; type: cell-based; settings: 0.5 h, pAkt Ser473, 30 minutes incubation, read-out: p-PKB IC50
How it was run: as §1

[3] = system: PKB Ser473 phosphorylation in Rat1-myr-HA-p110 delta cells; test: Reverse protein array assay, PKB Ser473 phosphorylation in Rat1-myr-p110 delta cells; type: cell-based; settings: read-out: p-PKB IC50
How it was run: as §1

[4] = pH 6.8, aqueous buffer, thermodynamic from solid, read-out: solubility

T1 sequence (P42336 with tags, fused parts or gaps limits assumed): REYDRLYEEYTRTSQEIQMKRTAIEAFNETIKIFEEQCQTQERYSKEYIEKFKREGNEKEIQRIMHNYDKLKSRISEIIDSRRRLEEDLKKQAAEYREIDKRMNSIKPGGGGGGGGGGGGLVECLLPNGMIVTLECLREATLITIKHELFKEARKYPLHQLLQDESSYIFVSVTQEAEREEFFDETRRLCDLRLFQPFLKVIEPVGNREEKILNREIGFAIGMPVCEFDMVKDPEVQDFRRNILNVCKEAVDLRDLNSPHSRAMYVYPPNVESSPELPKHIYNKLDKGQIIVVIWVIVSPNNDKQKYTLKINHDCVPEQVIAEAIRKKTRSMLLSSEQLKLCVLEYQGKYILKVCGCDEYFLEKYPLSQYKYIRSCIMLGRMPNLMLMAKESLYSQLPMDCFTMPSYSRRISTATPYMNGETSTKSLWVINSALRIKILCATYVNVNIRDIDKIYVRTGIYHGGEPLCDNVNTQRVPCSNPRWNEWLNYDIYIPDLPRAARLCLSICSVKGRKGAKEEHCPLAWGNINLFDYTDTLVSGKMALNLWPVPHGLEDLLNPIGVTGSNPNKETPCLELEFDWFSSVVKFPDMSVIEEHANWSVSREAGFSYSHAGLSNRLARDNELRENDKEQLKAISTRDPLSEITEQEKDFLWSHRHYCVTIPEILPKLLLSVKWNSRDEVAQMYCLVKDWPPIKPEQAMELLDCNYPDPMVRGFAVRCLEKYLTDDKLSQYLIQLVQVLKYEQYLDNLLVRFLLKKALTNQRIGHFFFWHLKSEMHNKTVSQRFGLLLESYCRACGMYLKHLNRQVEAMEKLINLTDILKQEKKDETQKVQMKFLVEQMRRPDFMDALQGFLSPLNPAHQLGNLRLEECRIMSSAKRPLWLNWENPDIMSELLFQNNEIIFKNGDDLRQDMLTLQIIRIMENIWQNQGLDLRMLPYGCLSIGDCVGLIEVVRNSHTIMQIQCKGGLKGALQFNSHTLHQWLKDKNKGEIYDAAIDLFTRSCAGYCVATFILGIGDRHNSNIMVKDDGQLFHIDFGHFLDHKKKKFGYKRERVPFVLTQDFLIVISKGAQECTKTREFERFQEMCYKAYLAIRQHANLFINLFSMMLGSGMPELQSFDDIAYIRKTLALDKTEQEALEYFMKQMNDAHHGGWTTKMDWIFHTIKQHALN

solubility (Solubility at pH 6.8; [4]) [µg/mL]	IC50 (PI3K alpha) [nM]	IC50 [1] [nM]	IC50 [2] [nM]	IC50 [3] [nM]	solubility (Solubility at pH 6.8; pH 6.8) [µg/mL]	Compound
4 (≈ 9.33 µM)	37	35	29	137		CCOc1ccc(-c2ccc3ncc4c(c3c2)n(-c2cn(CC)nc2C)c(=O)n4C)cn1 [Example 3.5, 8-(6-Ethoxy-pyridin-3-yl)-1-(1-ethyl-3-methyl-1H-pyrazol-4-yl)-3-methyl-1,3-dihydro-imidazo[4,5-c]quinolin-2-one]
8 (≈ 17.1 µM)	15	23	26	29		[2H]C([2H])([2H])OCc1ncc(-c2ccc3ncc4c(c3c2)n(-c2cn(C)nc2Cl)c(=O)n4C)cc1OC [Example 199, 1-(3-Chloro-1-methyl-1H-pyrazol-4-yl)-8-(5-methoxy-6-trideuteromethoxymethyl-pyridin-3-yl)-3-methyl-1,3-dihydro-imidazo[4,5-c]quinolin-2-one]
400 (≈ 936 µM)	5	< 5	< 5	7		Cc1ncc(-c2ccc3ncc4c(c3c2)n(-c2cn(C)nc2C)c(=O)n4C)cc1N(C)C [Example 164, 8-(5-Dimethylamino-6-methyl-pyridin-3-yl)-1-(1,3-dimethyl-1H-pyrazol-4-yl)-3-methyl-1,3-dihydro-imidazo[4,5-c]quinolin-2-one]
439 (≈ 988 µM)	18	63	114	154		COCc1ncc(-c2ccc3ncc4c(c3c2)n(-c2cn(C)nc2C)c(=O)n4C)cc1OC [Example 195.1, 1-(1,3-Dimethyl-1H-pyrazol-4-yl)-8-(5-methoxy-6-methoxymethyl-pyridin-3-yl)-3-methyl-1,3-dihydro-imidazo[4,5-c]quinolin-2-one]
17 (≈ 42.5 µM)	5	13	46	326		Cc1ncc(-c2ccc3ncc4c(c3c2)n(-c2cn(C)nc2C)c(=O)n4C)cc1O [Example 185.1, 1-(1,3-Dimethyl-1H-pyrazol-4-yl)-8-(5-hydroxy-6-methyl-pyridin-3-yl)-3-methyl-1,3-dihydro-imidazo[4,5-c]quinolin-2-one]
9 (≈ 18.5 µM)	30	44	43	155		CCn1cc(-n2c(=O)n(C)c3cnc4ccc(-c5ccc(OCCOC)c(OC)c5)cc4c32)c(C)n1 [Example 30.2, 1-(1-Ethyl-3-methyl-1H-pyrazol-4-yl)-8-[3-methoxy-4-(2-methoxy-ethoxy)-phenyl]-3-methyl-1,3-dihydro-imidazo[4,5-c]quinolin-2-one]
33 (≈ 77.7 µM)	47	51	152	442		Cc1nn(C)cc1-n1c(=O)n(C)c2cnc3ccc(-c4ccc5c(c4)CC(=O)N5)cc3c21 [Example 49, 1-(1,3-Dimethyl-1H-pyrazol-4-yl)-3-methyl-8-(2-oxo-2,3-dihydro-1H-indol-5-yl)-1,3-dihydro-imidazo[4,5-c]quinolin-2-one]
4 (≈ 9.58 µM)	9	7	10	15		CNc1cc(-c2ccc3ncc4c(c3c2)n(-c2cn(C)nc2C)c(=O)n4C)cnc1F [Example 150.2, 1-(1,3-Dimethyl-1H-pyrazol-4-yl)-8-(6-fluoro-5-methylamino-pyridin-3-yl)-3-methyl-1,3-dihydro-imidazo[4,5-c]quinolin-2-one]
	15	< 5	6	13	2 (≈ 4.5 µM)	CCn1cc(-n2c(=O)n(C)c3cnc4ccc(-c5cnc(NC)nc5OC)cc4c32)c(C)n1 [Example 236, 1-(1-Ethyl-3-methyl-1H-pyrazol-4-yl)-8-(4-methoxy-2-methylamino-pyrimidin-5-yl)-3-methyl-1,3-dihydro-imidazo[4,5-c]quinolin-2-one]
> 428	14	43	113	178		Cc1nn(C)cc1-n1c(=O)n(C)c2cnc3ccc(-c4cncc(C(C)(C)O)c4)cc3c21 [Example 215.2, 1-(1,3-Dimethyl-1H-pyrazol-4-yl)-8-[5-(1-hydroxy-1-methyl-ethyl)-pyridin-3-yl]-3-methyl-1,3-dihydro-imidazo[4,5-c]quinolin-2-one]
219 (≈ 495 µM)	6	< 5	8	18		Cc1ncc(-c2ccc3ncc4c(c3c2)n(-c2cn(C)nc2C)c(=O)n4C)cc1OC(C)C [Example 84.1, 1-(1,3-Dimethyl-1H-pyrazol-4-yl)-8-(5-isopropoxy-6-methyl-pyridin-3-yl)-3-methyl-1,3-dihydro-imidazo[4,5-c]quinolin-2-one]
16 (≈ 38.4 µM)	5	7	22	29		COc1ccc(-c2ccc3ncc4[nH]c(=O)n(-c5cn(C)nc5C)c4c3n2)cc1OC [Example 249, 8-(3,4-dimethoxy-phenyl)-1-(1,3-dimethyl-1H-pyrazol-4-yl)-1,3-dihydro-1,3,5,9-tetraaza-cyclopenta[a]naphthalen-2-one]
3 (≈ 7.13 µM)	100	151	207	370		Cc1noc(C)c1-n1c(=O)n(C)c2cnc3ccc(-c4cnc(N)c(Cl)c4)cc3c21 [Example 148.4, 8-(6-Amino-5-chloro-pyridin-3-yl)-1-(3,5-dimethyl-isoxazol-4-yl)-3-methyl-1,3-dihydro-imidazo[4,5-c]quinolin-2-one]
	11	8	15	38	2 (≈ 4.51 µM)	CCOc1ccc(-c2ccc3ncc4c(c3c2)n(-c2cn(C)nc2C)c(=O)n4C)cc1OC [Example 29.3, 1-(1,3-Dimethyl-1H-pyrazol-4-yl)-8-(4-ethoxy-3-methoxy-phenyl)-3-methyl-1,3-dihydro-imidazo[4,5-c]quinolin-2-one]
> 459	48	92	184	255		CCn1cc(-n2c(=O)n(C)c3cnc4ccc(-c5cnc(COC)c(OC)c5)cc4c32)c(C)n1 [Example 195.3, 1-(1-Ethyl-3-methyl-1H-pyrazol-4-yl)-8-(5-methoxy-6-methoxymethyl-pyridin-3-yl)-3-methyl-1,3-dihydro-imidazo[4,5-c]quinolin-2-one]
37 (≈ 87 µM)	29	166	299	225		Cc1nn(C)cc1-n1c(=O)n(C)c2cnc3ccc(-c4cnc5c(c4)nnn5C)cc3c21 [Example 72, 1-(1,3-Dimethyl-1H-pyrazol-4-yl)-3-methyl-8-(3-methyl-3H-[1,2,3]triazolo[4,5-b]pyridin-6-yl)-1,3-dihydro-imidazo[4,5-c]quinolin-2-one]
240 (≈ 540 µM)	86	139	231	314		COCCOc1ccc(-c2ccc3ncc4c(c3c2)n(-c2cn(C)nc2C)c(=O)n4C)cn1 [Example 18, 1-(1,3-Dimethyl-1H-pyrazol-4-yl)-8-[6-(2-methoxy-ethoxy)-pyridin-3-yl]-3-methyl-1,3-dihydro-imidazo[4,5-c]quinolin-2-one]
5 (≈ 11.6 µM)	5	41	97	118		COc1ccc(-c2ccc3ncc4c(c3n2)n(-c2cn(C)nc2C)c(=O)n4C)cc1OC [Example 250, 8-(3,4-Dimethoxy-phenyl)-1-(1,3-dimethyl-1H-pyrazol-4-yl)-3-methyl-1,3-dihydro-1,3,5,9-tetraaza-cyclopenta[a]naphthalen-2-one]
> 513	43	237	407	634		CCNc1cc(-c2ccc3ncc4c(c3c2)n(-c2c(C)nn(CC(=O)N(C)C)c2C)c(=O)n4C)cnc1C [Example 87.5, 2-{4-[8-(5-Ethylamino-6-methyl-pyridin-3-yl)-3-methyl-2-oxo-2,3-dihydro-imidazo[4,5-c]quinolin-1-yl]-3,5-dimethyl-pyrazol-1-yl}-N,N-dimethyl-acetamide]
5 (≈ 11 µM)	123	28	21	100		CNC(=O)c1ccc(-c2ccc3ncc4c(c3c2)n(-c2cn(C(C)C)nc2C)c(=O)n4C)cn1 [Example 15.3, 5-[1-(1-Isopropyl-3-methyl-1H-pyrazol-4-yl)-3-methyl-2-oxo-2,3-dihydro-1H-imidazo[4,5-c]quinolin-8-yl]-pyridine-2-carboxylic acid methylamide]
49 (≈ 114 µM)	17	85	101	193		Cc1nn(C)cc1-n1c(=O)n(C)c2cnc3ccc(-c4ccc(OCCO)nc4)cc3c21 [Example 107, 1-(1,3-Dimethyl-1H-pyrazol-4-yl)-8-[6-(2-hydroxy-ethoxy)-pyridin-3-yl]-3-methyl-1,3-dihydro-imidazo[4,5-c]quinolin-2-one]
